Test results as given in patent US8173840B2, “Compounds with high therapeutic index” (Signature R&D Holdings, LLC, priority 2003, dated 2012).
Like-named read-outs stand apart in the source and are kept apart here.

Key:
[1] = test system: Swiss Albino Mice; assay: 28-day chronic toxicity study of ibuprofen esters; conditions: 28 days
Excerpt: Randomization was done by the method of stratified randomization procedure using SAS software program (Version 8.2) with stratification by bodyweight.
The duration of dosing was 28 days. All the animals were daily tested until the end of the study for the presence/absence of clinical symptoms of toxicity. Cage side observations included changes in the skin, eyes, posture, gait, respiration and behavior pattern. The incidence of twitching, tremors, convulsions, salivation, diarrhea and death if any, were also recorded.

[2] = test system: male albino mice (Swiss strain); assay: Acetylcholine induced abdominal constriction (writhe) method; assay type: in vivo, mouse; conditions: for Number of animals showing absence of single writhe (number of animals per dose = 10), One hour after dosing / Number of animals showing absence of single writhe (number of animals per dose = 10), Three hours after dosing: gavage
Method: Ibuprofen (racemic mixture) and ibuprofen (S)-(+) served as reference controls.
The study was conducted at two dose levels viz. 50 mg and 100 mg/kg body weight along with a vehicle control group. At each dose level 10 animals were used. All the doses were expressed as ibuprofen molar equivalents. The doses used as well as the molar equivalents are presented below.
The efficacy in terms of antagonizing effect on acetylcholine induced single writhe at two dose levels—50.0 and 100.0 mg/kg for the three formulations and reference controls are presented below.

[3] = test system: fasted male albino rats (Wistar strain); assay: Gastric mucosa irritation of acetylsalicylic acid esters; assay type: in vivo, rat; conditions: two doses, 100 and 200 mg/kg
Method: Aspirin served as a reference control. […] All the doses were expressed as aspirin molar equivalents. The doses used as well as the molar equivalents are presented below. The rats were fasted for a period of 18 to 22 hours before dosing. The test item was administered as a single dose by gavage. Three hours after drug administration, the animals were killed humanely by CO2 gas inhalation. The stomach was dissected out and observed for • the quantity of mucous exudate, • degree of hyperemia and thickening of stomach wall, • hemorrhagic spots (focal or diffuse), nature of hemorrhages (petechial or ecchymotic) along with the size and • perforations

[4] = test system: albino rats; assay: Blood clotting time in albino rats, one hour after dosing; assay type: in vivo, rat; conditions: for Mean Clotting Time (±S.D.), Low Dose: 1.0 mg/kg as aspirin; for Mean Clotting Time (±S.D.), Intermediate Dose: 4.0 mg/kg as aspirin; for Mean Clotting Time (±S.D.), High Dose: 10.0 mg/kg as aspirin; for effectiveness with respect to clotting time: one hour after administration
Method: The data on the mean clotting time (MCT) of the animals of low, intermediate and high dose groups of different formulations, vehicle control and positive control groups estimated one hour after dosing were presented below (Table 19):
Aspirin served as positive control. The study was conducted at three dose levels with the new formulations and positive control along with a vehicle control group.
The doses for the main study were selected based on the dose range finding experiments with acetylsalicylic acid. All the doses were expressed as aspirin molar equivalents. The doses used are presented below.

[5] = test system: Male albino rats; assay: Blood clotting time in albino rats, 2 hours after dosing; assay type: in vivo, rat; conditions: for Mean Clotting Time (± S.D.): 20 mg/kg as aspirin, 2 hours (±10 minutes) after dosing
Method: Aspirin served as positive control. Male albino rats were exposed to aspirin and to 3 new formulations of amino acid derivatives of aspirin derivatives at one dose level of 20 mg/kg body weight. […]. The doses were expressed as aspirin molar equivalents.
The efficacy in terms of time required for the blood clotting time at the dose level of 20 mg/kg body weight for different formulations of amino acid derivatives of aspirin and aspirin (positive control) are presented below:
The data on the mean clotting time (MCT) of the animals, estimated 2 hours (±10 minutes) after dosing, at the dose level of 20 mg/kg body weight for the formulations of aspirin derivatives, vehicle control and positive control are presented below

[6] = test system: rats; assay: Clotting time in rats, different date, time intervals and doses (Table 24); assay type: in vivo, rat
Excerpt: The following additional data were obtained, when the same drugs were compared in rats on a different date with different time intervals and doses: […]

[7] = test system: albino mouse; assay: Anesthetic effect in male albino mice, righting reflex as index; conditions: low, intermediate, high dose
Excerpt: However the doses of low, intermediate and high for different formulations and reference control were different.
The different doses for each formulation and reference control were selected based on the recommendation of Sponsor. All the doses were expressed as propofol molar equivalents.

[8] = test system: albino mice (Swiss strain); assay: 14 day repeated dose toxicity study, intravenous route, propofol esters
Method: by conducting a 14 day repeated dose toxicity study through intravenous route using albino mice as test system.
Propofol and its derivatives above were administered to albino mice (Swiss strain), through intravenous route daily for a period of 14 days using sterile sodium chloride solution as vehicle. The study was conducted at one dose level only along with a vehicle control group as per the recommendation of the Sponsor.
The doses were selected as per the recommendation of the Sponsor. The test doses are expressed as Propofol molar equivalents.

[9] = test system: laboratory mice; assay: DSS induced ulcerative colitis in mice, disease treatment study (Disease Activity Index); assay type: in vivo, mouse; conditions: for Mean DAI: treatment started after colitis symptoms, mean of 10 mice
Excerpt: The mean group DAI is the determined.
Much more dramatic results were obtained when the mice were initially treated with DSS to induce colitis. Once clear symptoms of colitis were seen, DSS was replaced by drinking water, and treatment started with test and reference drugs, including vehicle control. All results are mean of 10 mice.

[10] = test system: laboratory mice; conditions: for Mean DAI: DSS coupled with drug from day 1, 10 mice per group; for performance in the model: DSS coupled with drug from day 1
Method: Percent animal body weight loss, stool consistency and occult blood at the end of the study will be taken into consideration to calculate Disease Activity Index (“DAI”) of each animal. The following scoring system outlined in Table 30 was for the percent body weight loss, stool consistency and occult blood:
The scores for each parameter for each mouse at the end of study are added together and divided by three (number of observations) to determine DAI. The mean group DAI is the determined. A score of 3 was assigned for any animal that died during the testing.
In this study, DSS administration is coupled with administration of either test or reference drug from day 1.

[11] = 50.0 mg/kg in terms of Ibuprofen
[12] = 100.0 mg/kg in terms of Ibuprofen

Compound: CC(C)Cc1ccc(C(C)C(=O)O[C@H]2CN[C@H](C(=O)O)C2)cc1 (mixture of isomers) [(±)-Ibuprofen-L-hydroxyproline ester, 4(R)-[2-(4-Isobutyl-phenyl)-propionyloxy]-pyrrolidine-2(S)-carboxylic acid] [listing 1 of 2 here]
- No of animals survived ([1]; 10 animals per group): 9
- animals that died ([1]; both sexes): 10%
- Mortality ([1]; Female): 1/5
- Mortality ([1]; Male): Nil
- Average Change In body Weight ([1]; surviving animals): 1.43 gms
- Percentage Change of body weight ([1]; surviving animals): 5.75%

Compound: CC(C)Cc1ccc(C(C)C(=O)OC[C@H](N)C(=O)O)cc1.Cl (mixture of isomers) [(±)-Ibuprofen-L-serine ester, 2(S)-Amino-3-[2(R,S)-(4-isobutylphenyl)-propionyloxy]-propionic acid, hydrochloride]
- Number of animals showing absence of single writhe (number of animals per dose = 10), One hour after dosing [2, 11]: 4
- Number of animals showing absence of single writhe (number of animals per dose = 10), Three hours after dosing [2, 11]: 2
- Number of animals showing absence of single writhe (number of animals per dose = 10), One hour after dosing [2, 12]: 6
- Number of animals showing absence of single writhe (number of animals per dose = 10), Three hours after dosing [2, 12]: 4

Compound: CC(C)Cc1ccc(C(C)C(=O)O[C@H]2CN[C@H](C(=O)O)C2)cc1 (mixture of isomers) [(±)-Ibuprofen-L-hydroxyproline ester, 4(R)-[2-(4-Isobutyl-phenyl)-propionyloxy]-pyrrolidine-2(S)-carboxylic acid] [listing 2 of 2 here]
- Number of animals showing absence of single writhe (number of animals per dose = 10), One hour after dosing [2, 11]: 5
- Number of animals showing absence of single writhe (number of animals per dose = 10), Three hours after dosing [2, 11]: 4
- Number of animals showing absence of single writhe (number of animals per dose = 10), One hour after dosing [2, 12]: 7
- Number of animals showing absence of single writhe (number of animals per dose = 10), Three hours after dosing [2, 12]: 7
- antagonizing the acetylcholine induced writhe, clinical observation ([2]; compared to other formulations, Ibuprofen (racemic) and Ibuprofen (S)-(+)): more effective in antagonizing the acetylcholine induced writhe

Compound: CC(=O)Oc1ccccc1C(=O)OC1CN[C@H](C(=O)O)C1 (stereo partly drawn) [2-O-Acetylsalicylic Acid (2S,4R)-4-hydroxyproline Ester]
- esters inducing evidence of irritation of gastric mucosa [3]: none
- Mean Clotting Time (±S.D.), Low Dose ([4]; one hour after dosing): 6.1 ± 1.10 min
- Mean Clotting Time (±S.D.), Intermediate Dose ([4]; one hour after dosing): 5.7 ± 0.82 min
- Mean Clotting Time (±S.D.), High Dose ([4]; one hour after dosing): 7.5 ± 1.18 min
- effectiveness with respect to clotting time [4]: as effective as acetylsalicylic acid
- statistical analysis of mean clotting time vs vehicle control ([4]; one hour after dosing): significant improvement at 5% significance level in the efficacy for the high dose and low dose
- Mean Clotting Time (± S.D.) [5]: 4.2 ± 1.32 min
- mean blood clotting time with respect to positive control (statistics) ([5]; after two hours): no significant difference at 5% significance level
- Clotting Time ([6]; 10 mg/kg 1 hr): 7.5 min
- Clotting Time ([6]; 10 mg/kg 24 hr): 3.3 min
- Clotting Time ([6]; 20 mg/kg 2 hr): 4.2 min

Compound: CC(C)Cc1ccc([C@H](C)C(=O)O)cc1 [Ibuprofen (S)-(+), reference compound]
- Number of animals showing absence of single writhe (number of animals per dose = 10), One hour after dosing [2, 11]: 5
- Number of animals showing absence of single writhe (number of animals per dose = 10), Three hours after dosing [2, 11]: 1
- Number of animals showing absence of single writhe (number of animals per dose = 10), One hour after dosing [2, 12]: 6
- Number of animals showing absence of single writhe (number of animals per dose = 10), Three hours after dosing [2, 12]: 6

Compound: CC(=O)Oc1ccccc1C(=O)OC[C@H](N)C(=O)O [L-serine ester of acetylsalicylic acid, 2-O-Acetylsalicylic Acid (2S)-(+)-serine Ester]
- esters inducing evidence of irritation of gastric mucosa [3]: none
- Mean Clotting Time (±S.D.), Low Dose ([4]; one hour after dosing): 5.7 ± 1.34 min
- Mean Clotting Time (±S.D.), Intermediate Dose ([4]; one hour after dosing): 6.8 ± 1.48 min
- Mean Clotting Time (±S.D.), High Dose ([4]; one hour after dosing): 6.9 ± 1.37 min
- effectiveness with respect to clotting time [4]: as effective as acetylsalicylic acid
- Mean Clotting Time (± S.D.) [5]: 3.8 ± 0.92 min
- Clotting Time ([6]; 10 mg/kg 1 hr): 6.9 min
- Clotting Time ([6]; 10 mg/kg 24 hr): 4.4 min
- Clotting Time ([6]; 20 mg/kg 2 hr): 3.8 min

Compound: CC(C)c1cccc(C(C)C)c1O [Propofol injection, 2,6-diisopropylphenol, reference compound]
- dose response relation (statistical analysis) [7]: statistically significant and clearly evident
- feed intake ([8]; 14 days): normal and comparable to that of vehicle control group
- animals exhibiting clinical symptoms of toxicity ([8]; IV daily 14 days): None of the animals
- body weight gain ([8]; IV daily 14 days, compared to vehicle control): normal and comparable to that of vehicle control group of animals

Compound: Cyclosporine A N-(L-lysine)-glycine ester, dihydrochloride trihydrate [Cyclosporine-GL]
- Mean DAI [9]: 0.532
- Mean DAI [10]: 1.100

Compound: Cyclosporine A N-(L-proline)-glycine ester, hydrochloride [Cyclosporine-GP]
- Mean DAI [9]: 0.066
- statistical result vs Cyclosporine reference drug ([9]; treatment study): statistically significant results
- performance in the model [10]: statistically significant performance compared to Cyclosporine A
- Mean DAI [10]: 1.062

Compound: Glycine Ester of Cyclosporine A [Cyclosporine-G]
- Mean DAI [9]: 0.100
- mice that died (out of 10) ([9]; treatment study): none died
- statistical result vs Cyclosporine reference drug ([9]; treatment study): statistically significant results
- performance in the model [10]: didn't perform as expected
- Mean DAI [10]: 1.531
